Test results published in patent US20130310256A1, “HERBICIDAL COMPOSITIONS COMPRISING 4-AMINO-3-CHLORO-5-FLUORO-6-(4-CHLORO-2-FLUORO-3-METHOXYPHENYL) PYRIDINE-2-CARBOXYLIC ACID OR A DERIVATIVE THEREOF AND VLCFA AND LIPID SYNTHESIS INHIBITING HERBICIDES” (DOW AGROSCIENCES LLC, priority 2008, published 2013).

Columns and labels:
CHEAL = assay: Example III: post-emergence foliar-applied weed control in cereal crops, greenhouse; type: in vivo, Chenopodium album L.; conditions: 21 DAA
Description: (§1) Seeds of the desired test plant species were planted in Sun Gro MetroMix® 306 planting mixture, which typically has a pH of 6.0 to 6.8 and an organic matter content of about 30 percent, in plastic pots with a surface area of 103.2 square centimeters (cm^2). When required to ensure good germination and healthy plants, a fungicide treatment and/or other chemical or physical treatment was applied. The plants were grown for 7-36 days in a greenhouse with an approximate 14 hour photoperiod which was maintained at about 18° C. during the day and 17° C. during the night. Nutrients and water were added on a regular basis and supplemental lighting was provided with overhead metal halide 1000-Watt lamps as necessary. The plants were employed for testing when they reached the second or third true leaf stage.
(§2) Treatments consisted of the benzyl ester of 4-amino-3-chloro-5-fluoro-6-(4-chloro-2-fluoro-3-methoxy-phenyl)pyridine-2-carboxylic acid (Compound A), formulated as an SC (suspension concentrate), and a second cereal herbicide alone and in combination.
(§3) Measured aliquots of the benzyl ester of 4-amino-3-chloro-5-fluoro-6-(4-chloro-2-fluoro-3-methoxy-phenyl)pyridine-2-carboxylic acid (Compound A) were placed in 25 milliliter (mL) glass vials and diluted in a volume of 1.25% (v/v) Agri-dex crop oil concentrated to obtain stock solutions. Compound requirements are based upon a 12 mL application volume at a rate of 187 liters per hectare (L/ha). Spray solutions of the second cereal herbicide and experimental compound mixtures were prepared by adding the stock solutions to the appropriate amount of dilution solution to form 12 mL spray solution with active ingredients in two- and three-way combinations. Formulated compounds were applied to the plant material with an overhead Mandel track sprayer equipped with an 8002E nozzle calibrated to deliver 187 L/ha over an application area of 0.503 square meters (m^2) at a spray height of 18 inches (46 cm) above average plant canopy. Control plants were sprayed in the same manner with the solvent blank.
(§4) The treated plants and control plants were placed in a greenhouse as described above and watered by sub-irrigation to prevent wash-off of the test compounds. After 20-22 days, the condition of the test plants as compared with that of the control plants was determined visually and scored on a scale of 0 to 100 percent where 0 corresponds to no injury and 100 corresponds to complete kill.
(§5) Colby's equation was used to determine the herbicidal effects expected from the mixtures (Colby, S. R. 1967. Calculation of the synergistic and antagonistic response of herbicide combinations. Weeds 15:20-22.).

GALAP = assay: as above; type: in vivo, Galium aparine L.; conditions: 21 DAA
Description: as §1, §2, §3, §4, §5

KCHSC = assay: as above; type: in vivo, Kochia scoparia (L.) Schrad.; conditions: 21 DAA
Description: as §1, §2, §3, §4, §5

PAPRH = assay: as above; type: in vivo, Papaver rhoeas L.; conditions: 21 DAA
Description: as §1, §2, §3, §4, §5

SASKR = assay: as above; type: in vivo, Salsola tragus L.; conditions: 21 DAA
Description: as §1, §2, §3, §4, §5

SINAR = assay: as above; type: in vivo, Sinapis arvensis L.; conditions: 21 DAA
Description: as §1, §2, §3, §4, §5

STEME = assay: as above; type: in vivo, Stellaria media (L.) Vill.; conditions: 21 DAA
Description: as §1, §2, §3, §4, §5

DIGSA = assay: Example I: postemergence foliar-applied weed control, greenhouse; type: in vivo, Digitaria sanguinalis (L.) Scop. (large crabgrass); conditions: 20 DAA; 560 gai/ha
Description: (§6) Seeds or nutlets of the desired test plant species were planted in a soil matrix prepared by mixing a loam or sandy loam soil (e.g., 28.6 percent silt, 18.8 percent clay, and 52.6 percent sand, with a pH of about 5.8 and an organic matter content of about 1.8 percent) and calcareous grit in an 80 to 20 ratio. The soil matrix was contained in plastic pots with a volume of 1 quart and a surface area of 83.6 square centimeters (cm^2). When required to ensure good germination and healthy plants, a fungicide treatment and/or other chemical or physical treatment was applied. The plants were grown for 8-22 days in a greenhouse with an approximate 14 hr photoperiod which was maintained at about 29° C. during the day and 26° C. during the night. Nutrients (Peters Excel® 15-5-15 5-Ca 2-Mg and iron chelate) were applied in the irrigation solution as needed and water was added on a regular basis. Supplemental lighting was provided with overhead metal halide 1000-Watt lamps as necessary. The plants were employed for testing when they reached the first through fourth true leaf stage.
(§7) Treatments consisted of the acid or esters of 4-amino-3-chloro-5-fluoro-6-(4-chloro-2-fluoro-3-methoxy-phenyl)pyridine-2-carboxylic acid (Compound A), each formulated as an SC (suspension concentrate), and various herbicidal components alone and in combination. Forms of compound A were applied on an acid equivalent basis.
(§8) Other herbicidal components were applied on an active ingredient basis and included very long chain fatty acid (VLCFA) synthesis-inhibiting and fatty acid/lipid synthesis-inhibiting herbicides acetochlor (technical grade material), acetochlor+dichlormid formulated as Topnotch®, pretilachlor (technical grade material), butachlor formulated as Butachlor EC, fentrazamide formulated as Fentrazamide EC, thiobencarb formulated as Bolero® 8EC, cafenstrole formulated as Himeadow® WP or Lapost® Flowable, benfuresate formulated as Full Shot®, dimethenamid-P formulated as Outlook®, indanofan (technical grade material), flufenacet formulated as Define® DF, mefenacet (technical grade material), S-metolachlor formulated as Dual® II Magnum, pethoxamid formulated as Successor® 600, and pyroxasulfone (technical grade material).
(§9) Treatment requirements were calculated based upon the rates being tested, the concentration of active ingredient or acid equivalent in the formulation, and a 12 mL application volume at a rate of 187 L/ha.
(§10) For treatments comprised of formulated compounds, measured amounts of compounds were placed individually in 25 mL glass vials and diluted in a volume of 1.25% (v/v) Agri-Dex® crop oil concentrated to obtain 12× stock solutions. […] Application solutions were prepared by adding an appropriate amount of each stock solution (e.g., 1 mL) and diluted to the appropriate final concentrations with the addition of 10 mL of an aqueous mixture of 1.25% (v/v) crop oil concentrate so that the final spray solutions contained 1.25+/−0.05% (v/v) crop oil concentrate.
(§11) For treatments comprised of technical compounds, weighed amounts can be placed individually in 25 mL glass vials and dissolved in a volume of 97:3 v/v acetone/DMSO to obtain 12× stock solutions. […] Application solutions can be prepared by adding an appropriate amount of each stock solution (e.g., 1 mL) and diluted to the appropriate final concentrations with the addition of 10 mL of an aqueous mixture of 1.5% (v/v) crop oil concentrate so that the final spray solutions contain 1.25% (v/v) crop oil concentrate. When technical materials are used, the concentrated stock solutions can be added to the spray solutions so that the final acetone and DMSO concentrations of the application solutions are […], respectively. […]

ECHCO = assay: as above; type: in vivo, Echinochloa colona (L.) Link (junglerice); conditions: 20 DAA
Description: as §6, §7, §8, §9, §10, §11

CYPIR = assay: as above; type: in vivo, Cyperus iria L. (rice flatsedge); conditions: 20 DAA
Description: as §6, §7, §8, §9, §10, §11

ISCRU = assay: as above; type: in vivo, Ischaemum rugosum Salisb. (saramollagrass); conditions: 21 DAA
Description: as §6, §7, §8, §9
For treatments comprised of formulated compounds, measured amounts of compounds were placed individually in 25 mL glass vials and diluted in a volume of 1.25% (v/v) Agri-Dex® crop oil concentrated to obtain 12× stock solutions. […]

ECHOR = assay: Example II: in-water applied weed control, transplanted paddy rice, greenhouse; type: in vivo, Echinochloa oryzoides (Ard.) Fritsch (early watergrass)
Description: (§12) Weed seeds or nutlets of the desired test plant species were planted in puddled soil (mud) prepared by mixing a shredded, non-sterilized mineral soil (50.5 percent silt, 25.5 percent clay, and 24 percent sand, with a pH of about 7.6 and an organic matter content of about 2.9 percent) and water at a 1:1 volumetric ratio. The prepared mud was dispensed in 365 mL aliquots into 16-ounce (oz.) non-perforated plastic pots with a surface area of 86.59 square centimeters (cm^2) leaving a headspace of 3 centimeters (cm) in each pot. Mud was allowed to dry overnight prior to planting or transplanting. Rice seeds were planted in Sun Gro MetroMix® 306 planting mixture, which typically has a pH of 6.0 to 6.8 and an organic matter content of about 30 percent, in plastic plug trays. Seedlings at the second or third leaf stage of growth were transplanted into 840 mL of mud contained in 32-oz. non-perforated plastic pots with a surface area of 86.59 cm^2 4 days prior to herbicide application. The paddy was created by filling the headspace of the pots with 2.5 to 3 cm of water. When required to ensure good germination and healthy plants, a fungicide treatment and/or other chemical or physical treatment was applied. The plants were grown for 4-22 days in a greenhouse with an approximate 14 hr photoperiod which was maintained at about 29′C during the day and 26° C. during the night. Nutrients were added as Osmocote® (19:6:12, N:P:K+ minor nutrients) at 2 g per 16-oz. pot and 4 g per 32-oz. pot. Water was added on a regular basis to maintain the paddy flood, and supplemental lighting was provided with overhead metal halide 1000-Watt lamps as necessary. The plants were employed for testing when they reached the first through fourth true leaf stage.
(§13) Treatments consisted of the acid or esters of 4-amino-3-chloro-5-fluoro-6-(4-chloro-2-fluoro-3-methoxy-phenyl)pyridine-2-carboxylic acid (compound A) each formulated as an SC (suspension concentrate) and various herbicidal components alone and in combination. Forms of compound A were applied on an acid equivalent basis.
(§14) The herbicidal components were applied on an active ingredient basis and included very long chain fatty acid (VLCFA) synthesis-inhibiting and fatty acid/lipid synthesis-inhibiting herbicides acetochlor (technical grade material), acetochlor+dichlormid formulateded as Topnotch®, pretilachlor (technical grade material), butachlor formulated as Butachlor EC, fentrazamide formulated as Fentrazamide EC, thiobencarb formulated as Bolero® 8EC, cafenstrole formulated as Himeadow® WP or Lapost® Flowable, benfuresate formulated as Full Shot®, anilofos (technical grade material), mefenacet (technical grade material), molinate (technical grade material), and thenylchlor (technical grade material).
(§15) Treatment requirements for each compound or herbicidal component were calculated based upon the rates being tested, the concentration of active ingredient or acid equivalent in the formulation, an application volume of 2 mL per component per pot, and an application area of 86.59 cm^2 per pot.
(§16) For formulated compounds, a measured amount was placed in an individual 100 or 200 mL glass vial and was dissolved in a volume of 1.25% (v/v) Agri-Dex® crop oil concentrate to obtain application solutions.
(§17) For technical grade compounds, a weighed amount was placed in an individual 100 to 200 mL glass vial and was dissolved in a volume of acetone to obtain concentrated stock solutions. […] The concentrated stock solutions obtained were diluted with an equivalent volume of an aqueous mixture containing 2.5% (v/v) crop oil concentrate so that the final application solutions contained 1.25% (v/v) crop oil concentrate.
(§18) Applications were made by injecting with a pipetter appropriate amounts of the application solutions, individually and sequentially, into the aqueous layer of the paddy. Control plants were treated in the same manner with the solvent blank. […]

CYPRO = assay: as above; type: in vivo, Cyperus rotundus L. (purple nutsedge); conditions: 20 DAA
Description: as §12, §13, §14, §15, §16, §17, §18

SMILES: CCCN(CCC)C(=O)SCc1ccccc1 [Prosulfocarb, S-(phenylmethyl) dipropylcarbamothioate]
- Visual Weed Control CHEAL Obs (CHEAL; 1000 gai/ha): 10%
- Visual Weed Control CHEAL Obs (CHEAL; 2000 gai/ha): 15%
- Visual Weed Control GALAP Obs (GALAP; 1000 gai/ha): 15%
- Visual Weed Control GALAP Obs (GALAP; 2000 gai/ha): 40%
- Visual Weed Control GALAP Obs (GALAP; 4000 gai/ha): 67%
- Visual Weed Control KCHSC Obs (KCHSC; 1000 gai/ha): 10%
- Visual Weed Control KCHSC Obs (KCHSC; 2000 gai/ha): 15%
- Visual Weed Control KCHSC Obs (KCHSC; 4000 gai/ha): 75%
- Visual Weed Control PAPRH Obs (PAPRH; 1000 gai/ha): 5%
- Visual Weed Control PAPRH Obs (PAPRH; 2000 gai/ha): 10%
- Visual Weed Control PAPRH Obs (PAPRH; 4000 gai/ha): 13%
- Visual Weed Control SASKR Obs (SASKR; 1000 gai/ha): 5%
- Visual Weed Control SASKR Obs (SASKR; 2000 gai/ha): 5%
- Visual Weed Control SASKR Obs (SASKR; 4000 gai/ha): 63%
- Visual Weed Control SINAR Obs (SINAR; 1000 gai/ha): 13%
- Visual Weed Control SINAR Obs (SINAR; 2000 gai/ha): 18%
- Visual Weed Control STEME Obs (STEME; 1000 gai/ha): 0%
- Visual Weed Control STEME Obs (STEME; 2000 gai/ha): 10%
- Visual Weed Control STEME Obs (STEME; 4000 gai/ha): 73%

SMILES: CCN(CC)C(=O)SCc1ccc(Cl)cc1 [Thiobencarb, S-[(4-chlorophenyl)methyl]N,N-diethylcarbamothioate]
- Visual Weed Control Obs (DIGSA): 20%
- Visual Weed Control Obs (ECHCO; 560 gai/ha): 45%
- Visual Weed Control Obs (ECHCO; 1120 gai/ha): 40%
- Visual Weed Control Obs (CYPIR; 560 gai/ha): 0%
- Visual Weed Control Obs (CYPIR; 1120 gai/ha): 0%
- Visual Weed Control Obs (CYPIR; 2240 gai/ha): 0%
- Visual Weed Control Obs (ISCRU; 1120 gai/ha): 0%
- Visual Weed Control Obs (ISCRU; 2240 gai/ha): 0%
- Visual Weed Control (%) - 20 DAA ECHOR Obs (ECHOR; 1120 gai/ha): 60%
- pest or weed control at 1120 g/ha (ECHOR; Echinochloa oryzoides, 480 h, 1120 gai/ha, 20 DAA, read-out: Visual Weed Control ECHOR Obs): 60%
- pest or weed control at 2240 g/ha (ECHOR; Echinochloa oryzoides, 480 h, 2240 gai/ha, 20 DAA, read-out: Visual Weed Control ECHOR Obs): 90%
- Visual Weed Control CYPRO Obs (CYPRO; 1120 gai/ha): 0%
- Visual Weed Control CYPRO Obs (CYPRO; 2240 gai/ha): 0%
